According to patent US7241763B2, “3-furanyl analogs of toxoflavine as kinase inhibitors” (priority 2002, dated 2007):
Read-outs that look alike come from different tables or passages of the source.

Assays:
cdk4 = cdk4 (Homo sapiens, UniProt P11802); assay: In vitro inhibition of cdk4 using a scintillant proximity assay (CDK4 SPA, Ex. C1); format: biochemical
Method: In Vitro Inhibition of cdk4 using a Scintillant Proximity Assay
The scintillant proximity assay (SPA) is in general described in U.S. Pat. No. 4,568,649 (Amersham Pharmacia Biotech). In the present cdk4 SPA kinase reaction assay, a kinase substrate consisting of a fragment of the restinoblastoma protein (pRb) tagged with […] (GST), is incubated with the aforementioned protein in the presence of (^33P) radiolabeled ATP. (^33P) phosporylation of the substrate is subsequently measured as light energy emitted using glutathione-coated SPA beads (Amersham Pharmacia Biotech) by trapping and quantifying the binding of the GST tagged and radiolabeled restinoblastoma protein.
The CDK4 SPA kinase reaction is performed at room temperature for 30 minutes in a 96-well microtiter plate. For each of the tested compounds a full dose response —10^−5M to 3.10^−9M—has been performed. Flavopiridol was used as reference compound. The 100 μl reaction volume contains 50 mM Hepes, 10 mM NaF, 10 mM MgCl2, 1 mM Na3VO4 pH 7.5, 1.5 μg CDK4-cell lysate/well, 0.2 μM unlabeled ATP, 1.7 μg/well GST-pRb, 1.7 nM AT^33P and 1 μl of a DMSO solution. The reaction is stopped by diluting the reaction mixture ½ with 0.1 mM Na2EDTA, 0.1 mM non-labeled ATP, 0.05% Triton-X-100 and 10 mg/ml glutathion coated beads in PBS. The microtiterplates are centrifuges at 900 rpm for 10 minutes and the amount of phosphorylated (^33P) pRb is determined by counting (1 min/well) in a microtiterplate scintillation counter.

AKT3 [1] = target: T1, AKT3 (Homo sapiens, UniProt Q9Y243); assay: In vitro inhibition of AKT3 using a filter assay (AKT3 pep., Ex. C3); format: biochemical
Method: In Vitro Inhibition of AKT3 using a Filter Assay
In the present AKT3 filter assay, a kinase substrate consisting of a fragment of histone H2B, is incubated with the aforementioned protein in the presence of (^33P) radiolabeled ATP. The (^33P)phosporylated substrate binds to a phosphocellulose cation exchange filter, that can easily be removed from the incubation mixture and counted using a microplate scintillation counter.
AKT3 filter assays were performed at 25° C. for 3 hrs in the presence of 25 mM Hepes, pH 7.0, containing 15 mM MgCl2, 1 mM DTT Each assay was performed in a 100 μl reaction volume containing 111 nM AKT3 (diluted in 25 mM Hepes, pH 7.0, containing 15 mM MgCl2, 1 mM DTT) and the 2.5 μM Histone H2B and 2 nM ATP-P^32. The reaction was terminated by addition of 100 μl 75 mM H3PO4, 90 μl of the assay mixture was filtered through Phosphocellulose cation exchange paper. After five times washing with […] H3PO4, the filterpaper was counting in a microtiterplate scintillation counter.

A2780 cell = assay: Cytotox/survival of A2780 cell after 3 days; format: cell-based; settings: Homo sapiens, read-out: Cytotox/survival of A2780 cell after 3 days - pIC50 values (converted)
Method: In an alternative assay, the growth inhibitory effect of the compounds was tested on the ovarian carcinoma cell line A2780 using art known cytotoxicity assays such as LIVE/DEAD (Molecular Probes) or MTT.

CDC25B = target: T2, CDC25B (Homo sapiens, UniProt P30305); assay: In vitro inhibition of CDC25B using the fluorogenic substrate 3-OMFP (CDC25B WT, Ex. C5); format: biochemical
T2 sequence (P30305 1-580): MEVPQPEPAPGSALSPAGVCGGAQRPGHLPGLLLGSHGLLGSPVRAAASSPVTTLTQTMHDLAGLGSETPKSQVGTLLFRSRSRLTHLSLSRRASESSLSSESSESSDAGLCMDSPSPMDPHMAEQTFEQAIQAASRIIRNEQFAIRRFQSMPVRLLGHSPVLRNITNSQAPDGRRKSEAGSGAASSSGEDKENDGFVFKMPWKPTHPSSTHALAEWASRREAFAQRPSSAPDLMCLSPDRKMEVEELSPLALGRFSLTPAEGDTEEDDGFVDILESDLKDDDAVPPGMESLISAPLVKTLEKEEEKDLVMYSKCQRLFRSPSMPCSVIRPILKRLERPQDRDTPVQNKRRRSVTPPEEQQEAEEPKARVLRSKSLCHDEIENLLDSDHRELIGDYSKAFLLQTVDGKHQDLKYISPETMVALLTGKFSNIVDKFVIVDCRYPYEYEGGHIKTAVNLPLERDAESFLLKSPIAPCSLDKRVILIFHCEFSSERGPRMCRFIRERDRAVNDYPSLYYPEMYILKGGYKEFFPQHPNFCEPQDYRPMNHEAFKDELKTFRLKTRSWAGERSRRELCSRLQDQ
Method: In Vitro Inhibition of CDC25B using the Fluorogenic Substrate 3-OMFP
CDC25B phosphatase activity is assessed using the fluorogenic substrate 3-O-methyl-flurorescein-phosphate (3-OMFP). The phosphatase-reaction is performed for 1 hour at room temperature in a black microtiter plate in a volume of 50 μl. The reaction mixture contains 4 μg/mlCDC25B, 15 μM (3-OMFP), 15 mM Tris, 50 mM NaCl, 1 mM DTT, 1 mM Na2EDTA at pH 8.0 and 0.1% DMSO solution at 10^−5 M and the hits are tested in the same conditions in a full dose/response from 10^−5, 3.10^−6, 10^−6 and 3.10^−7 M. The enzymatic activity is determined by measuring the fluorescent signal at 485 nm (ex.) and 538 (em.).

AKT3 [2] = target: T1, AKT3; assay: Cellular inhibition of AKT3 using an ELISA (AKT cel, Ex. C6); format: cell-based; parameters: endogenous in cells; host or cells: MDA-MB 231
Method: Cellular Inhibition of AKT3 using an ELISA
The human breast adenocarcinoma cell line (MDA-MB 231) was used in an phosphospecific antibody cell ELISA (PACE) to assess the inhibitory effect of the compounds on AKT3 mediated phosphorylation of mitogen-activated protein kinase (MAPK). In the experiments the MDA-MB 231 cells were serum starved for 24 hours (5% CO2; 37° C.). Subsequently, the cells are incubated at room temperature for 2 hours with 20 μM (in serum free medium) of the phosphatidylinositol 3-kinase inhibitor Ly294002 (Alexis, San Diego, Calif.) prior to the incubation for 30 minutes with the compounds at a final concentration ranging from 1 nM to 3 μM. After fixation (with 4.5% formaldehyde) for 20 minutes and washing with PBS (0.1M) the cells were successively incubated with for 5 minutes with 0.1% Triton X-100 in PBS, for 20 minutes with 0.6% H2O2 and 1 hour with a 2% BSA solution as blocking buffer. […] The OD (490–655 nm) reflected the amount of phosphorylated MAPK and the pIC50 of the compounds was based on their effect with respect to blanco (0.1% DMSO) or an internal reference compound treatment.

[3] = GST-pRb substrate, 33P-ATP, room temperature 30 minutes, read-out: CDK4 SPA (Ex. C1): pIC50 values (converted)
[4] = histone H2B substrate, filter assay, 25° C. 3 hrs, read-out: AKT3 pep. (Ex. C3): pIC50 values (converted)
[5] = 72 h, A2780 ovarian carcinoma cell line, 3 days
[6] = 3-OMFP substrate, 1 hour room temperature, read-out: CDC25B WT (Ex. C5): pIC50 values (converted)
[7] = MDA-MB 231 cells, phosphorylated MAPK ELISA, 30 minutes with compound, read-out: AKT cel (Ex. C6): pIC50 values (converted)

Chain of cdk4 (P11802 whole entry): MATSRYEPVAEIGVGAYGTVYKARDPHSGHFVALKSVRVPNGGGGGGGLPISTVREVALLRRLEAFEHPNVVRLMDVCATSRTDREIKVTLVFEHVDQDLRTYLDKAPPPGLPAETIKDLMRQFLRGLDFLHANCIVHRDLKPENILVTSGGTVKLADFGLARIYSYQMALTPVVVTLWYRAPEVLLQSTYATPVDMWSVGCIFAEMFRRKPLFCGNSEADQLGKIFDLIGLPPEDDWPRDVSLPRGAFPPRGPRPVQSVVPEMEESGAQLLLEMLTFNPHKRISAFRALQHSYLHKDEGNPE
Chain of cdk4 (P24385 whole entry partner): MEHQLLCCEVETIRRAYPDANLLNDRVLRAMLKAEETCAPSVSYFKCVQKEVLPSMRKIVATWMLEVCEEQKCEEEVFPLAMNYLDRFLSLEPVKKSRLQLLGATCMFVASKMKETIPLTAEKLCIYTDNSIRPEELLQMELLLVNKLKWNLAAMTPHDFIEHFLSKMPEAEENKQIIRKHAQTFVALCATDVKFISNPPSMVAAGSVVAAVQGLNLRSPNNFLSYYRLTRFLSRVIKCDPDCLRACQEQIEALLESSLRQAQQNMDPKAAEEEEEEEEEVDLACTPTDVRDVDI
T1 sequence (Q9Y243 whole entry): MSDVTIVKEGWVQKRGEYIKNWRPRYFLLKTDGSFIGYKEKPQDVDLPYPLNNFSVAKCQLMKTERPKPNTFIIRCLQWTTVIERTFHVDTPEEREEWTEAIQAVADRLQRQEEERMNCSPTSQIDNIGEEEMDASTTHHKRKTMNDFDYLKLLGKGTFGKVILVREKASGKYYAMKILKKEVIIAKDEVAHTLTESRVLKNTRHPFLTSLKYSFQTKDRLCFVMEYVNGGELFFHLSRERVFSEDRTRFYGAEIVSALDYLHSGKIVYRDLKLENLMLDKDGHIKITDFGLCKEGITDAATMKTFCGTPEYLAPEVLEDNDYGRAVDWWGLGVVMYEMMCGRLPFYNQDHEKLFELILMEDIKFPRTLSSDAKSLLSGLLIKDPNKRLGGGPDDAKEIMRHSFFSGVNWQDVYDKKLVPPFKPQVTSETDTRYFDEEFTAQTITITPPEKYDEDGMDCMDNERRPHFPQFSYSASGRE

SMILES	IC50 (cdk4; [3])	IC50 (AKT3 [1]; [4])	IC50 (A2780 cell; [5])	IC50 (CDC25B; [6])	melting point	IC50 (AKT3 [2]; [7])	IC50 (cdk4)	IC50 (AKT3 [1])	IC50 (A2780 cell; A2780, 72 h)	IC50 (CDC25B)	IC50 (AKT3 [2])
COC1CCN(Cc2ccc(-c3ccc(-c4nc5c(=O)n(C)c(=O)nc-5n(C5CCCC5)n4)o3)cc2)CC1 [Compound 132]	78.5 nM	47 nM	87.7 nM	20.2 nM	220 °C	58.3 nM	–	–	–	–	–
Cn1c(=O)nc2n(C3CCNCC3)nc(-c3ccc(-c4cccc(Cl)c4)o3)nc-2c1=O [Compound 96]	–	62.1 nM	10 nM	9.18 nM	> 250 °C	3.41 nM	–	–	–	–	–
Cn1c(=O)nc2n(C3CCCC3)nc(-c3ccc(-c4ccc(OCCN5CCOCC5)cc4)o3)nc-2c1=O [Compound 117]	–	–	–	–	173 °C	–	286 nM	49.4 nM	178 nM	18.9 nM	813 nM
CC(c1ccccc1)n1nc(-c2ccc(-c3cccc(Cl)c3)o2)nc2c(=O)n(C)c(=O)nc1-2 (stereo not drawn) [Compound 67]	–	161 nM	196 nM	21.3 nM	–	716 nM	–	–	–	–	–
Cn1nc(-c2ccc(-c3cccc(CNS(C)(=O)=O)c3)o2)nc2c(=O)n(C)c(=O)nc1-2 [Compound 2]	–	72.6 nM	490 nM	20.8 nM	215.1 to 236.6 °C	209 nM	–	–	–	–	–
Cn1c(=O)nc2n(C3CCN(S(N)(=O)=O)CC3)nc(-c3ccc(-c4cccc(Cl)c4)o3)nc-2c1=O [Compound 114]	–	45.2 nM	110 nM	15.2 nM	> 250 °C	187 nM	–	–	–	–	–
Cn1c(=O)nc2n(C3CCCC3)nc(-c3ccc(-c4ccc(CN5CCN(S(N)(=O)=O)CC5)cc4)o3)nc-2c1=O [Compound 112]	117 nM	63.7 nM	142 nM	19.8 nM	> 250 °C	202 nM	–	–	–	–	–
Cn1c(=O)nc2n(C3CCCC3)nc(-c3ccc(-c4ccc(CN5CCOCC5)cc4)o3)nc-2c1=O [Compound 94]	–	57.3 nM	53 nM	11.2 nM	255 °C	63.8 nM	–	–	–	–	–
Cn1c(=O)nc2n(C3CCCC3)nc(-c3ccc(-c4ccc(CN5CCC(N)CC5)cc4)o3)nc-2c1=O [Compound 37]	–	51.8 nM	67.5 nM	–	–	34.4 nM	–	–	–	–	–
Cn1c(=O)nc2n(C3CCCC3)nc(-c3ccc(-c4ccc(CN5CCNCC5)cc4)o3)nc-2c1=O [Compound 105]	–	115 nM	54.5 nM	16.6 nM	> 276.5 °C	98.2 nM	–	–	–	–	–
Cn1c(=O)nc2n(C3CCCC3)nc(-c3ccc(-c4ccc(S(=O)(=O)N5CCOCC5)cc4)o3)nc-2c1=O [Compound 93]	–	53.6 nM	52.8 nM	11 nM	> 250 °C	471 nM	–	–	–	–	–
Cn1c(=O)nc2n(C3CCCC3)nc(-c3ccc(-c4cccc(CN5CCOCC5)c4)o3)nc-2c1=O [Compound 98]	–	107 nM	107 nM	15.1 nM	155 °C	111 nM	–	–	–	–	–
CC(C)n1nc(-c2ccc(-c3ccc(CN4CCOCC4)cc3)o2)nc2c(=O)n(C)c(=O)nc1-2 [Compound 78]	–	57.9 nM	79.8 nM	11.3 nM	–	139 nM	–	–	–	–	–
Cn1nc(-c2ccc(-c3ccc(S(=O)(=O)N4CCOCC4)cc3)o2)nc2c(=O)n(C)c(=O)nc1-2	–	–	–	–	264.3 to 273.4 °C	–	–	–	–	–	–
CN(CCO)Cc1ccc(-c2ccc(-c3nc4c(=O)n(C)c(=O)nc-4n(C4CCCC4)n3)o2)cc1 [Compound 107]	–	39.5 nM	60.8 nM	16 nM	> 250 °C	95.7 nM	–	–	–	–	–
CONCc1ccc(-c2ccc(-c3nc4c(=O)n(C)c(=O)nc-4n(C4CCCC4)n3)o2)cc1 [Compound 115]	–	48.1 nM	46.9 nM	13.2 nM	140 °C	74.8 nM	–	–	–	–	–
Cn1nc(-c2ccc(-c3cccc(Cl)c3)o2)nc2c(=O)n(C3CCN(Cc4ccccc4)CC3)c(=O)nc1-2	–	–	–	–	210.4 to 241 °C	–	–	–	–	–	–
Cn1c(=O)nc2n(C3CCCC3)nc(-c3ccc(-c4ccc(CN5CCC(O)CC5)cc4)o3)nc-2c1=O [Compound 103]	–	85.5 nM	60.8 nM	16 nM	> 250 °C	65.5 nM	–	–	–	–	–
Cn1nc(-c2ccc(-c3cccc(CN4CCOCC4)c3)o2)nc2c(=O)n(C)c(=O)nc1-2 [Compound 1]	–	32.1 nM	61.9 nM	< 1 nM	209.3 to 219.8 °C	62.1 nM	–	–	–	–	–
Cn1c(=O)nc2n(C3CCCC3)nc(-c3ccc(-c4ccc(CNCCO)cc4)o3)nc-2c1=O [Compound 113]	–	32.5 nM	45.1 nM	14.2 nM	240 °C	34.8 nM	–	–	–	–	–
Cn1c(=O)nc2n(C3CCCC3)nc(-c3ccc(-c4ccc(CN5CCN(CCO)CC5)cc4)o3)nc-2c1=O [Compound 106]	–	84.3 nM	70.3 nM	15.6 nM	175 °C	102 nM	–	–	–	–	–
